# In patent US10413505B1, “Pharmaceutical compositions and methods of using the same” (priority 2017, dated 2019):
# Marks after values point to notes of the source that are not given here.
# What was measured:
# [1] = Example 3 urinary pharmacokinetics, normal hepatic function vs hepatic impairment; type: in vivo, human; conditions: for Urine Recovery as % of Dose, Geomean / Urine Recovery as % of Dose, Mean: 0-32 h, single intranasal dose; for CLr Geomean / CLr Mean: Table 26
# Method: Urine was collected prior to dosing and from 0-2, 2-4, 4-8, 8-12, 12-24, and 24-32 hours after beginning of dose application. […] Urinary pharmacokinetic parameters included total urinary recovery (μg), urinary recovery as a percentage of dose, and CLr.
# [2] = Example 3 plasma pharmacokinetics, normal hepatic function vs hepatic impairment
# [3] = Example 2 plasma pharmacokinetics, normal renal function vs severe renal impairment; conditions: single intranasal 160 mg cocaine HCl, plasma
# [4] = normal hepatic function, single intranasal 160 mg cocaine HCl
# [5] = subjects with hepatic impairment
# [6] = subjects with hepatic impairment, 32 hours post administration
# [7] = subjects with hepatic impairment, Table 30
# [8] = subjects with normal hepatic function
# [9] = normal hepatic function, single intranasal 160 mg cocaine HCl, plasma
# [10] = plasma, subjects with hepatic impairment, single intranasal dose
smiles,measurement,setting,value
"COC(=O)[C@@H]1[C@H]2CC[C@@H](C[C@@H]1O)N2C [EME, ecgonine methyl ester]","Urine Recovery as % of Dose, Geomean",[1]; Impaired hepatic function,2.43 % of Dose
same,"Urine Recovery as % of Dose, Mean",[1]; Impaired hepatic function,3.51 % of Dose
same,CLr Geomean,[1]; Impaired hepatic function,10.2 L/h
same,CLr Mean,[1]; Impaired hepatic function,10.9 L/h
same,"Urine Recovery as % of Dose, Geomean",[1]; Normal hepatic function,0.93 % of Dose
same,"Urine Recovery as % of Dose, Mean",[1]; Normal hepatic function,1.12 % of Dose
same,CLr Geomean,[1]; Normal hepatic function,14.6 L/h
same,CLr Mean,[1]; Normal hepatic function,17.2^d L/h
same,0-32 h Urinary Recovery (geometric mean),[1]; [4],875.2 µg
same,0-32 h Urinary Recovery (mean),[1]; [4],1048.23 µg
same,0-32 h Urinary Recovery (median),[1]; [4],1164.3 µg
same,"Renal Clearance, geometric mean",[1]; [5],169.75 mL/min
same,"Renal Clearance, mean",[1]; [5],181.23 mL/min
same,"Renal Clearance, median",[1]; [5],160.92 mL/min
same,0-32 h Urinary Recovery (geometric mean),[1]; [6],2278.1 µg
same,0-32 h Urinary Recovery (mean),[1]; [6],3294 µg
same,0-32 h Urinary Recovery (median),[1]; [6],2249.7 µg
same,"Renal Clearance, geometric mean",[1]; [7],169.753 mL/min
same,"Renal Clearance, mean",[1]; [7],181.233 mL/min
same,"Renal Clearance, median",[1]; [7],160.92 mL/min
same,"Renal Clearance, geometric mean",[1]; [8],243.011 mL/min
same,"Renal Clearance, mean",[1]; [8],286.128 mL/min
same,"Renal Clearance, median",[1]; [8],219.782 mL/min
same,"AUClast, times higher than normal subjects",[2]; Grade B hepatic impairment,approximately 2.4 times
same,"AUClast, times higher than normal subjects",[2]; Grade C hepatic impairment,2.2 times
same,AUC0→t (Geometric mean),[2]; [9],61.2 ng·h/mL
same,AUC0→t (Max),[2]; [9],198 ng·h/mL
same,AUC0→t (Mean),[2]; [9],72.9 ng·h/mL
same,AUC0→t (Median),[2]; [9],59.1 ng·h/mL
same,AUC0→t (Min),[2]; [9],24.5 ng·h/mL
same,AUC0→∞ (Geometric mean),[2]; [9],76.1 ng·h/mL
same,AUC0→∞ (Max),[2]; [9],212 ng·h/mL
same,AUC0→∞ (Mean),[2]; [9],89.6 ng·h/mL
same,AUC0→∞ (Median),[2]; [9],72.9 ng·h/mL
same,AUC0→∞ (Min),[2]; [9],31.5 ng·h/mL
same,Clast (Geometric mean),[2]; [9],1.67 ng/mL
same,Clast (Max),[2]; [9],3.72 ng/mL
same,Clast (Mean),[2]; [9],1.85 ng/mL
same,Clast (Median),[2]; [9],1.60 ng/mL
same,Clast (Min),[2]; [9],1.00 ng/mL
same,Cmax (Geometric mean),[2]; [9],8.75 ng/mL
same,Cmax (Max),[2]; [9],26.8 ng/mL
same,Cmax (Mean),[2]; [9],10.0 ng/mL
same,Cmax (Median),[2]; [9],7.81 ng/mL
same,Cmax (Min),[2]; [9],3.83 ng/mL
same,Tlast (Geometric mean),[2]; [9],15.4 h
same,Tlast (Max),[2]; [9],28.0 h
same,Tlast (Mean),[2]; [9],16.5 h
same,Tlast (Median),[2]; [9],12.0 h
same,Tlast (Min),[2]; [9],600 min
same,Tmax (Geometric mean),[2]; [9],1.33 h
same,Tmax (Max),[2]; [9],3.00 h
same,Tmax (Mean),[2]; [9],1.45 h
same,Tmax (Median),[2]; [9],1.25 h
same,Tmax (Min),[2]; [9],30 min
same,t1/2 (Geometric mean),[2]; [9],5.99 h
same,t1/2 (Max),[2]; [9],9.97 h
same,t1/2 (Mean),[2]; [9],6.27 h
same,t1/2 (Median),[2]; [9],5.69 h
same,t1/2 (Min),[2]; [9],250 min
same,AUC0→t (Geometric mean),[2]; [10],146 ng·h/mL
same,AUC0→t (Mean),[2]; [10],185 ng·h/mL
same,AUC0→t (Median),[2]; [10],140 ng·h/mL
same,AUC0→∞ (Geometric mean),[2]; [10],212 ng·h/mL
same,AUC0→∞ (Mean),[2]; [10],233 ng·h/mL
same,AUC0→∞ (Median),[2]; [10],185 ng·h/mL
same,Clast (Geometric mean),[2]; [10],1.57 ng/mL
same,Clast (Mean),[2]; [10],1.65 ng/mL
same,Clast (Median),[2]; [10],1.67 ng/mL
same,Cmax (Geometric mean),[2]; [10],11.3 ng/mL
same,Cmax (Mean),[2]; [10],16.1 ng/mL
same,Cmax (Median),[2]; [10],9.11 ng/mL
same,Tlast (Geometric mean),[2]; [10],26.3 h
same,Tlast (Mean),[2]; [10],27.7 h
same,Tlast (Median),[2]; [10],32.0 h
same,Tmax (Geometric mean),[2]; [10],2.90 h
same,Tmax (Mean),[2]; [10],3.84 h
same,Tmax (Median),[2]; [10],4.00 h
same,t1/2 (Geometric mean),[2]; [10],8.67 h
same,t1/2 (Mean),[2]; [10],9.26 h
same,t1/2 (Median),[2]; [10],8.3 h
same,AUC0→t (Geometric mean),[3]; normal renal function,41.8 ng·h/mL
same,AUC0→t (Max),[3]; normal renal function,231 ng·h/mL
same,AUC0→t (Mean),[3]; normal renal function,64.0 ng·h/mL
same,AUC0→t (Median),[3]; normal renal function,46.3 ng·h/mL
same,AUC0→t (Min),[3]; normal renal function,9.3 ng·h/mL
same,AUC0→∞ (Geometric mean),[3]; normal renal function,79.3 ng·h/mL
same,AUC0→∞ (Max),[3]; normal renal function,241 ng·h/mL
same,AUC0→∞ (Mean),[3]; normal renal function,94.5 ng·h/mL
same,AUC0→∞ (Median),[3]; normal renal function,66.8 ng·h/mL
same,AUC0→∞ (Min),[3]; normal renal function,44.4 ng·h/mL
same,Clast (Geometric mean),[3]; normal renal function,1.505 ng/mL
same,Clast (Max),[3]; normal renal function,2.58 ng/mL
same,Clast (Mean),[3]; normal renal function,1.583 ng/mL
same,Clast (Median),[3]; normal renal function,1.42 ng/mL
same,Clast (Min),[3]; normal renal function,1.070 ng/mL
same,Cmax (Geometric mean),[3]; normal renal function,5.8 ng/mL
same,Cmax (Max),[3]; normal renal function,19.2 ng/mL
same,Cmax (Mean),[3]; normal renal function,7.5 ng/mL
same,Cmax (Min),[3]; normal renal function,1.8 ng/mL
same,Tlast (Geometric mean),[3]; normal renal function,12.3 h
same,Tlast (Max),[3]; normal renal function,32.0 h
same,Tlast (Mean),[3]; normal renal function,13.5 h
same,Tlast (Median),[3]; normal renal function,12.0 h
same,Tlast (Min),[3]; normal renal function,480 min
same,Tmax (Geometric mean),[3]; normal renal function,2.196 h
same,Tmax (Max),[3]; normal renal function,4.00 h
same,Tmax (Mean),[3]; normal renal function,2.698 h
same,Tmax (Median),[3]; normal renal function,3.0 h
same,Tmax (Min),[3]; normal renal function,20 min
same,t1/2 (Geometric mean),[3]; normal renal function,5.02 h
same,t1/2 (Max),[3]; normal renal function,6.67 h
same,t1/2 (Mean),[3]; normal renal function,5.12 h
same,t1/2 (Median),[3]; normal renal function,5.53 h
same,t1/2 (Min),[3]; normal renal function,217 min
same,AUC0→t (Geometric mean),[3]; severe renal impairment,180.2 ng·h/mL
same,AUC0→t (Max),[3]; severe renal impairment,382 ng·h/mL
same,AUC0→t (Mean),[3]; severe renal impairment,201.1 ng·h/mL
same,AUC0→t (Median),[3]; severe renal impairment,196 ng·h/mL
same,AUC0→t (Min),[3]; severe renal impairment,61.0 ng·h/mL
same,AUC0→∞ (Geometric mean),[3]; severe renal impairment,244.5 ng·h/mL
same,AUC0→∞ (Max),[3]; severe renal impairment,527 ng·h/mL
same,AUC0→∞ (Mean),[3]; severe renal impairment,267.5 ng·h/mL
same,AUC0→∞ (Median),[3]; severe renal impairment,242 ng·h/mL
same,AUC0→∞ (Min),[3]; severe renal impairment,143.9 ng·h/mL
same,Clast (Geometric mean),[3]; severe renal impairment,2.218 ng/mL
same,Clast (Max),[3]; severe renal impairment,5.85 ng/mL
same,Clast (Mean),[3]; severe renal impairment,2.46 ng/mL
same,Clast (Median),[3]; severe renal impairment,1.93 ng/mL
same,Clast (Min),[3]; severe renal impairment,1.51 ng/mL
same,Cmax (Geometric mean),[3]; severe renal impairment,10.3 ng/mL
same,Cmax (Max),[3]; severe renal impairment,20.5 ng/mL
same,Cmax (Mean),[3]; severe renal impairment,11.9 ng/mL
same,Cmax (Median),[3]; severe renal impairment,11.5 ng/mL
same,Cmax (Min),[3]; severe renal impairment,3.2 ng/mL
same,Tlast (Geometric mean),[3]; severe renal impairment,31.5 h
same,Tlast (Max),[3]; severe renal impairment,32.0 h
same,Tlast (Mean),[3]; severe renal impairment,31.5 h
same,Tlast (Median),[3]; severe renal impairment,32.0 h
same,Tlast (Min),[3]; severe renal impairment,1680 min
same,Tmax (Geometric mean),[3]; severe renal impairment,3.715 h
same,Tmax (Max),[3]; severe renal impairment,12.00 h
same,Tmax (Mean),[3]; severe renal impairment,4.53 h
same,Tmax (Median),[3]; severe renal impairment,4.00 h
same,Tmax (Min),[3]; severe renal impairment,90 min
same,t1/2 (Geometric mean),[3]; severe renal impairment,13.16 h
same,t1/2 (Max),[3]; severe renal impairment,25.70 h
same,t1/2 (Mean),[3]; severe renal impairment,13.97 h
same,t1/2 (Median),[3]; severe renal impairment,12.27 h
same,t1/2 (Min),[3]; severe renal impairment,488 min
